The pEC50 is −log10 of the EC50, conventionally taken in molar units.

Data on two substances can be found in paper PMC12184107 (Cell Cycle, 2024).

pEC50: −log10 of the molar value.

For one test, the system named is LGR5. Conditions: gastric cancer, phage display; cited from earlier work.
The target in test [1] is T1, recombinant human LGR5 (leucine-rich repeat-containing G-protein-coupled receptor 5) (human) (UniProt O75473).
T1 sequence (O75473 whole entry, looked up): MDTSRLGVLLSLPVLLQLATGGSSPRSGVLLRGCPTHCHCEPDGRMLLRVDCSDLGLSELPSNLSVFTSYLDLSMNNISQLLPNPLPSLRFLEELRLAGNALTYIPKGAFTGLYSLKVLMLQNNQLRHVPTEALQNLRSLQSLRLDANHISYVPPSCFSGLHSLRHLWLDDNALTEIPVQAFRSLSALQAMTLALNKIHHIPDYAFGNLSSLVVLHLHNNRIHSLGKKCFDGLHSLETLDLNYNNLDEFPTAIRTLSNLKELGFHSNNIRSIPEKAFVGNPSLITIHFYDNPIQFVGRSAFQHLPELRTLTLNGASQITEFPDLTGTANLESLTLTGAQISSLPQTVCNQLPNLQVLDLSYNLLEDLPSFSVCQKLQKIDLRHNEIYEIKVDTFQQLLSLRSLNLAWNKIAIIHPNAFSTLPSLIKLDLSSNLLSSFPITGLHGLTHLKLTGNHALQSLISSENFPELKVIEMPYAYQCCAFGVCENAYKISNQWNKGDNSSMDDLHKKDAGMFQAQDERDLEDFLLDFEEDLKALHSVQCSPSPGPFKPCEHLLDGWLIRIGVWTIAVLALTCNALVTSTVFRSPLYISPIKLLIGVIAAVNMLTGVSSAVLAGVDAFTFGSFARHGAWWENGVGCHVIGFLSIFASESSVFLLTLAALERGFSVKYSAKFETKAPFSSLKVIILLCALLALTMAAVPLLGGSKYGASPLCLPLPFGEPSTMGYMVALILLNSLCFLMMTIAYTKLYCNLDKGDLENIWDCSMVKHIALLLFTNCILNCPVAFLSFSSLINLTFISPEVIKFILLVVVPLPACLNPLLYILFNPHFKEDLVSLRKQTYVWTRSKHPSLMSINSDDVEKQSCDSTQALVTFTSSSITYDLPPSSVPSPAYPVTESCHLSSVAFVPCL
Put plainly: ELISA. For orientation: An ELISA detects its analyte on a solid surface through an enzyme-linked reagent.

Consider IPQILSI, for which the LGR5 binding entry in the test on LGR5 is reported as “possessed LGR5 binding capabilities”.
Consider “recombinant human R-spondin 1 (from UniProt Q2MKA7 21-263) (ligand)”, for which the negative-log EC50 (pEC50) in test [1] was 10.40.
